Measurements: patent US8071612B2, “6-alkenyl and 6-phenylalkyl substituted 2-quinolinones and 2-quinoxalinones as poly(ADP-ribose) polymerase inhibitors” (Janssen Pharmaceutica, NV, priority 2004, dated 2011)

Tests used:
[1] = target: T1, PARP-1 enzyme (Homo sapiens, UniProt P09874); assay: In vitro Scintillation Proximity Assay (SPA) for PARP-1 inhibitory activity; assay type: biochemical; settings: nicked DNA activated PARP-1, [3H]-NAD+, biotinylated histones; read-out: In vitro SPA pIC50 (converted)
T1 construct: made in house
Experimental: Compounds of the present invention were tested in an in vitro assay based on SPA technology (proprietary to Amersham Pharmacia Biotech).
In principle, the assay relies upon the well established SPA technology for the detection of poly(ADP-ribosyl)ation of biotinylated target proteins, i.e histones. This ribosylation is induced using nicked DNA activated PARP-1 enzyme and [^3H]-nicotinamide adenine dinucleotide ([^3H]-NAD^+) as ADP-ribosyl donor.
As inducer of PARP-1 enzyme activity, nicked DNA was prepared. For this, 25 mg of DNA (supplier: Sigma) was dissolved in 25 ml DNAse buffer (10 mM Tris-HCl, pH 7.4; 0.5 mg/ml Bovine Serum Albumine (BSA); 5 mM MgCl2.6H2O and 1 mM KCl) to which 50 μl DNAse solution (1 mg/ml in 0.15 M NaCl) was added. After an incubation of 90 min. at 37° C., the reaction was terminated by adding 1.45 g NaCl, followed by a further incubation at 58° C. for 15 min. The reaction mixture was cooled on ice and dialysed at 4° C. for respectively 1.5 and 2 hours against 1.5 l of 0.2 M KCl, and twice against 1.5 l of 0.01 M KCl for 1.5 and 2 h respectively. The mixture was aliquoted and stored at −20° C. Histones (1 mg/ml, type II-A, supplier: Sigma) were biotinylated using the biotinylation kit of Amersham and stored aliquoted at −20° C. A stock solution of 100 mg/ml SPA poly(vinyl toluene) (PVT) beads (supplier: Amersham) was made in PBS. A stock solution of [^3]H-NAD^+ was made by adding 120 μl of [^3H]-NAD^+ (0.1 mCi/ml, supplier: NEN) to 6 ml incubation buffer (50 mM Tris/HCl, pH 8; 0.2 mM DTT; 4 mM MgCl2). A solution of 4 mM NAD^+ (supplier: Roche) was made in incubation buffer (from a 100 mM stock solution in water stored at −20° C.). The PARP-1 enzyme was produced using art known techniques, i.e. cloning and expression of the protein starting from human liver cDNA. Information concerning the used protein sequence of the PARP-1 enzyme including literature references can be found in the Swiss-Prot database under primary accession number P09874. Biotinylated histones and PVT-SPA beads were mixed and pre-incubated for 30 min. at room temperature. PARP-1 enzyme (concentration was lot dependent) was mixed with the nicked DNA and the mixture was pre-incubated for 30 min. at 4° C. Equal parts of this histones/PVT-SPA beads solution and PARP-1 enzyme/DNA solution were mixed and 75 μl of this mixture together with 1 μl of compound in DMSO and 25 μl of [^3H]-NAD^+ was added per well into a 96-well microtiterplate. The final concentrations in the incubation mixture were 2 μg/ml for the biotinylated histones, 2 mg/ml for the PVT-SPA beads, 2 μg/ml for the nicked DNA and between 5-10 μg/ml for the PARP-1 enzyme. After incubation of the mixture for 15 min. at room temperature, the reaction was terminated by adding 100 μl of 4 mM NAD^+ in incubation buffer (final concentration 2 mM) and plates were mixed.
The beads were allowed to sediment for at least 15 min. and plates transferred to a TopCountNXT™ (Packard) for scintillation counting, values were expressed as counts per minute (cpm). For each experiment, controls (containing PARP-1 enzyme and DMSO without compound), a blank incubation (containing DMSO but no PARP-1 enzyme or compound) and samples (containing PARP-1 enzyme and compound dissolved in DMSO) were run in parallel. All compounds tested were dissolved and eventually further diluted in DMSO. In first instance, compounds were tested at a concentration of 10^−5 M or 10^−6M. […] In each test, the blank value was subtracted from both the control and the sample values. The control sample represented maximal PARP-1 enzyme activity. For each sample, the amount of cpm was expressed as a percentage of the mean cpm value of the controls. When appropriate, IC50-values (concentration of the drug, needed to reduce the PARP-1 enzyme activity to 50% of the control) were computed using linear interpolation between the experimental points just above and below the 50% level. […]

[2] = target: T1, PARP-1 enzyme; assay: In vitro filtration assay for PARP-1 inhibitory activity; assay type: biochemical; settings: nicked DNA activated PARP-1, [32P]-NAD, histones; read-out: In vitro filtration assay pIC50 (converted)
Experimental: Compounds of the present invention were tested in an in vitro filtration assay assessing PARP-1 activity (triggered in the presence of nicked DNA) by means of its histone poly (ADP-ribosyl)ation activity using [^32P]-NAD as ADP-ribosyl donor. The radioactive ribosylated histones were precipitated by trichloroacetic acid (TCA) in 96-well filterplates and the incorporated [^32P] measured using a scintillation counter
A mixture of histones (stock solution: 5 mg/ml in H2O), NAD (stock solution: 100 mM in H2O), and [^32P]-NAD^+ in incubation buffer (50 mM Tris/HCl, pH 8; 0.2 mM DTT; 4 mM MgCl2) was made. A mixture of the PARP-1 enzyme (5-10 μg/ml) and nicked DNA was also made. The nicked DNA was prepared as described in the in vitro SPA for PARP-1 inhibitory activity. Seventy-five μl of the PARP-1 enzyme/DNA mixture together with 1 μl of compound in DMSO and 25 μl of histones-NAD^+/[^32P]-NAD^+ mixture was added per well of a 96-well filterplate (0.45 μm, supplier Millipore). The final concentrations in the incubation mixture were 2 μg/ml for the histones, 0.1 mM for the NAD^+, […] (0.5 μC) for the [^32P]-NAD^+ and 2 μg/ml for the nicked DNA. Plates were incubated for 15 min. at room temperature and the reaction was terminated by the addition of 10 μl ice cold 100% TCA followed by the addition of 10 μl ice-cold BSA solution (1% in H2O). The protein fraction was allowed to precipitate for 10 min. at 4° C. and plates were vacuum filtered. The plates were subsequently washed with, for each well, 1 ml of 10% ice cold TCA, 1 ml of 5% ice cold TCA and 1 ml of 5% TCA at room temperature. Finally 100 μl of scintillation solution (Microscint 40, Packard) was added to each well and the plates were transferred to a TopCountNXT™ (supplier: Packard) for scintillation counting and values were expressed as counts per minute (cpm). For each experiment, controls (containing PARP-1 enzyme and DMSO without compound), a blank incubation (containing DMSO but no PARP-1 enzyme or compound) and samples (containing PARP-1 enzyme and compound dissolved in DMSO) were run in parallel. All compounds tested were dissolved and eventually further diluted in DMSO. In first instance, compounds were tested at a concentration of 10^−5M. […] In each test, the blank value was subtracted from both the control and the sample values. The control sample represented maximal PARP-1 enzyme activity. For each sample, the amount of cpm was expressed as a percentage of the mean cpm value of the controls. When appropriate, IC50-values (concentration of the drug, needed to reduce the PARP-1 enzyme activity to 50% of the control) were computed using linear interpolation between the experimental points just above and below the 50% level. Herein the effects of test compounds are expressed as pIC50 (the negative log value of the IC50-value). As a reference compound, 4-amino-1,8-naphthalimide was included to validate the filtration assay.

T1 sequence (P09874 whole entry): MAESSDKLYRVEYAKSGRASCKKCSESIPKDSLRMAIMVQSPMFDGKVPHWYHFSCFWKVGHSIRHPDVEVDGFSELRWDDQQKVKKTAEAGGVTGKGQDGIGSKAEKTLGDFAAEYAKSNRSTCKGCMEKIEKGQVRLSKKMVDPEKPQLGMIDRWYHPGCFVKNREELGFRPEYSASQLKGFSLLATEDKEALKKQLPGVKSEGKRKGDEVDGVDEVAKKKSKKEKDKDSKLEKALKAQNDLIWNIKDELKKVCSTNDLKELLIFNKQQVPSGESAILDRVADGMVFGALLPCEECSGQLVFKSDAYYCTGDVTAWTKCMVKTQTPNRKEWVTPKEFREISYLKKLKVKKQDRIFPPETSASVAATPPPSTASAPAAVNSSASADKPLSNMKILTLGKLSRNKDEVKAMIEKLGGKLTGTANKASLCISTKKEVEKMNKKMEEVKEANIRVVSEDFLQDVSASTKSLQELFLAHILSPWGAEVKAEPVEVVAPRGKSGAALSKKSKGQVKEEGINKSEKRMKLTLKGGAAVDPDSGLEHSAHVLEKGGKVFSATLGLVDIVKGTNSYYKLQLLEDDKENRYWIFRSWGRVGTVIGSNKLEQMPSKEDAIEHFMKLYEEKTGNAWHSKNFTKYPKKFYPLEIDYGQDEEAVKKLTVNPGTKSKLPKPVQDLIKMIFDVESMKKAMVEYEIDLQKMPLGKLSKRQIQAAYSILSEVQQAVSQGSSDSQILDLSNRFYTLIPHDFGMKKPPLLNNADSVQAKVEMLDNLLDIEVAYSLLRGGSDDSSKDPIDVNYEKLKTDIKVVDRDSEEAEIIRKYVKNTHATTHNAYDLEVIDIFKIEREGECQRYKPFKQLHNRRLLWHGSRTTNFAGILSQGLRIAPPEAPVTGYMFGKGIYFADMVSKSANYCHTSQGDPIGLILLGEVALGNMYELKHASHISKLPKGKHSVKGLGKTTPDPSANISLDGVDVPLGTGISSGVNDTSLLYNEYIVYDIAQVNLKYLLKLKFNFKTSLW

COCCNC1CCN(C(c2ccc3c(c2)OCCO3)c2ccc3[nH]c(=O)c4ccccc4c3c2)CC1 (stereo not shown) [Compound 11]
melting point: 116 °C | IC50 [1]: 7.29 nM

CCc1cc2cc(C(c3ccc4c(c3)OCCO4)C3CCN(C/C=C/c4ccccc4)CC3)ccc2[nH]c1=O (stereo not shown) [Compound 14]
melting point: 107 °C | IC50 [1]: 97.1 nM

CCc1cc2cc([C@@H](CCN3CCCCC3)c3ccc4c(c3)OCCO4)ccc2[nH]c1=O (single isomer, unassigned) [Compound 144]
melting point: 159 °C

CCc1nc2cc(CC(O)c3ccc(Cl)cc3)ccc2[nH]c1=O (stereo not shown) [Compound 19]
melting point: 204 °C | IC50 [1]: 256 nM

CCc1cc2cc(C(=O)c3ccc4c(c3)OCCO4)ccc2[nH]c1=O [Compound 2]
melting point: 255 °C | IC50 [1]: 735 nM

C#CC(O)(c1ccccc1)c1ccc2[nH]c(=O)c(C)cc2c1 (stereo not shown) [Compound 112]
IC50 [1]: 689 nM | IC50 [2]: 2710 nM

COc1cccc(C(O)c2ccc3[nH]c(=O)c(C)cc3c2)c1 (stereo not shown) [Compound 107]
IC50 [1]: 841 nM | IC50 [2]: 10000 nM

Cc1cc2cc(C(c3ccc(Cl)cc3)n3ccnc3)ccc2[nH]c1=O (stereo not shown) [Compound 95]
IC50 [1]: 818 nM | IC50 [2]: 6350 nM

CCc1nc2cc(C(c3ccc(Cl)cc3)n3ccnc3)ccc2[nH]c1=O (stereo not shown) [Compound 126]
IC50 [1]: 573 nM | IC50 [2]: 2250 nM

Cc1cc2cc(C(c3ccccc3)c3cncn3C)ccc2[nH]c1=O (stereo not shown) (hydrate or solvate) [Compound 10]
melting point: 240 °C

CCc1cc2cc(C(c3ccc(Cl)cc3)N3CCC(=O)CC3)ccc2[nH]c1=O (stereo not shown) [Compound 38]
IC50 [1]: 316 nM | IC50 [2]: 2650 nM

CCc1nc2cc(CC(=O)c3ccc(Cl)cc3)ccc2[nH]c1=O [Compound 113]
IC50 [1]: 556 nM | IC50 [2]: 5930 nM

COc1ccc(C(c2ccc3[nH]c(=O)c(C)nc3c2)n2ccnc2)cc1 (stereo not shown) [Compound 128, 6-[(1H-imidazol-1-yl)(4-methoxyphenyl)methyl]-3-methyl-2(1H)-quinoxalinone]
IC50 [1]: 361 nM | IC50 [2]: 2300 nM

Cc1cc2cc(C(c3ccccc3)C3CCCN(C)C3)ccc2[nH]c1=O (stereo not shown) [Compound 88]
IC50 [1]: 264 nM | IC50 [2]: 4070 nM

CCc1cc2cc(C(c3ccccc3)N3CCN(C)CC3)ccc2[nH]c1=O (stereo not shown) [Compound 39]
IC50 [1]: 596 nM | IC50 [2]: 10000 nM

CCc1nc2cc(C(c3ccc(Cl)cc3)N3CCCCC3)ccc2[nH]c1=O (stereo not shown) [Compound 124]
IC50 [1]: 1570 nM | IC50 [2]: 1380 nM

CCc1cc2cc(C(c3cccc(C(F)(F)F)c3)n3cnnc3)ccc2[nH]c1=O (stereo not shown) [Compound 72]
IC50 [1]: 211 nM | IC50 [2]: 2100 nM

Cc1cc2cc(C(NC=O)c3cccc(Cl)c3)ccc2[nH]c1=O (stereo not shown) [Compound 104]
IC50 [1]: 501 nM | IC50 [2]: 2380 nM

CCc1cc2cc(/C(=C/CN(C)C)c3ccccc3)ccc2[nH]c1=O [Compound 139]
IC50 [1]: 668 nM | IC50 [2]: 4120 nM

CCc1cc2cc(C(c3cccc(C(F)(F)F)c3)N3CCN(C)CC3)ccc2[nH]c1=O (stereo not shown) [Compound 80]
IC50 [1]: 692 nM | IC50 [2]: 3910 nM

Cc1cc2cc(C(NCCC(=O)c3ccccc3)c3ccccc3)ccc2[nH]c1=O (stereo not shown) [Compound 27]
IC50 [1]: 925 nM | IC50 [2]: 2330 nM

CCc1cc2cc(C(OCCN(C)C)c3ccccc3)ccc2[nH]c1=O (stereo not shown) [Compound 28]
IC50 [1]: 226 nM | IC50 [2]: 773 nM

CCc1nc2cc(C(c3cccc(Cl)c3)n3ccnc3)ccc2[nH]c1=O (stereo not shown) [Compound 123]
IC50 [1]: 612 nM | IC50 [2]: 3300 nM

CCc1cc2cc(C(O)c3ccccc3)ccc2[nH]c1=O (stereo not shown) [Compound 110]
IC50 [1]: 277 nM | IC50 [2]: 2580 nM

CCc1cc2cc(C(c3ccc(Cl)cc3)N3CCC(NCCOC)CC3)ccc2[nH]c1=O (stereo not shown) [Compound 86]
IC50 [1]: 292 nM | IC50 [2]: 2240 nM

CCc1cc2cc(C(c3cccc(C(F)(F)F)c3)N3CCC(NCCOC)CC3)ccc2[nH]c1=O (stereo not shown) [Compound 87]
IC50 [1]: 589 nM | IC50 [2]: 4950 nM

CCc1cc2cc(C(c3ccccc3)N3CCC(NCCOC)CC3)ccc2[nH]c1=O (stereo not shown) [Compound 13]
IC50 [1]: 220 nM | IC50 [2]: 2110 nM

Cc1cc2cc(C(c3ccccc3)N3CCCCC3)ccc2[nH]c1=O (stereo not shown) [Compound 93]
IC50 [1]: 508 nM | IC50 [2]: 2150 nM

Cc1cc2cc(CCC(NC=O)c3ccccc3)ccc2[nH]c1=O (stereo not shown) [Compound 103]
IC50 [1]: 902 nM | IC50 [2]: 7730 nM

CCc1cc2cc([C@H](CCN3CCCCC3)c3ccc4c(c3)OCCO4)ccc2[nH]c1=O (single isomer, unassigned) [Compound 145]
melting point: 172 °C

CCc1cc2cc(C(NCCCN3CCCCC3)c3ccccc3)ccc2[nH]c1=O (stereo not shown) [Compound 26]
IC50 [1]: 119 nM | IC50 [2]: 918 nM

Cc1cc2cc(C(c3cccc(Cl)c3)n3ccnc3)ccc2[nH]c1=O (stereo not shown) [Compound 94]
IC50 [1]: 665 nM | IC50 [2]: 3560 nM

Cc1cc2cc(C(NCCCc3cccs3)c3ccccc3)ccc2[nH]c1=O (stereo not shown) [Compound 23]
IC50 [1]: 1410 nM | IC50 [2]: 3270 nM

CCc1nc2cc(C(c3ccc(F)cc3)n3ccnc3)ccc2[nH]c1=O (stereo not shown) [Compound 125]
IC50 [1]: 711 nM | IC50 [2]: 5610 nM

CCc1nc2cc(CC(c3ccc(Cl)cc3)N3CCCCC3)ccc2[nH]c1=O (stereo not shown) [Compound 114]
IC50 [1]: 552 nM | IC50 [2]: 1580 nM
